According to paper PMC5062570 (Nature Communications, 2016):
“Also recorded” adds a separate entry of the source. Read-outs that look alike come from different tables or passages of the source.

Key:
[1] = Plasma exposure (average unbound plasma concentration) in rats; assay type: in vivo, rat; conditions: for Exposure: rat exploratory toxicology studies; for Avg Cp,u metabolite: active metabolite of the dosed compound
Description: Wistar Han rats (obtained from Charles River, 125–300 g, 6–9 weeks old at study start, see Supplementary Table 7 for number of males and females) received daily oral dosing of test compounds or vehicle at the indicated concentrations for 7–29 days as indicated. The doses were prepared in a solution of 0.5% methylcellulose and 0.2% polysorbate 80, or 0.5% methylcellulose and hydroxypropyl methylcellulose acetate succinate (high fine grade) and delivered in a volume of 10 ml kg^−1 per day. Blood samples for bioanalytical analysis were collected in K2EDTA tubes via jugular vessel. Plasma was isolated after centrifugation and stored at −20 °C prior to analysis. Animals were given an additional dose the day after the end of the study (days 8, 15 or 30 for 7, 14 and 29 day studies, respectively) then killed by gas anaesthesia (isoflurane) followed by exsanguination ∼3 h after this final dose.
(§1) Plasma samples were analysed after protein precipitation by treating 20 μl of sample matrix with 200 μl of acetonitrile containing internal standard. All samples were centrifuged at 3,000 r.p.m. for 5 min. Then 100 μl of supernatant was transferred to a clean plate and evaporated to dryness under N2. Samples were reconstituted in 200 μl of 80:20 (v:v) acetonitrile:water. Samples were analysed on Waters Acquity UPLC connected to AB Sciex API5500 QTrap MS/MS.
Plasma protein binding was determined in the Rapid Equilibrium Device (RED, Thermo Scientific). Frozen plasma was warmed to 37 °C and adjusted to pH 7.4. The plasma was spiked with compound to a final concentration of 2 μM. Aliquots of spiked plasma were added to the donor (red) side, followed by addition of buffer to the receiver (white) side. The RED device was covered with a gas-permeable membrane and agitated within a humidified CO2 incubator (5% CO2, 75% relative humidity). Plasma (15 μl) and buffer (45 μl) were sampled from each insert and were matrix-matched with appropriate blank matrix (plasma with 45 μl buffer and buffer with 15 μl of plasma). Samples were protein-precipitated with acetonitrile containing internal standard, and the resulting supernatant was analysed by LC-MS/MS.

[2] = system: retinal pigment epithelium (RPE); assay: Ocular toxicity, retinal histology in wild-type and BACE1 knockout mice; conditions: 80 mg kg-1 daily; for WT ocular toxicity incidence (positive or negative animals / total evaluated) / WT ocular toxicity outcome: wild-type mice
Description: All experiments and procedures involving animals were conducted as per the established guidelines and protocols that were reviewed and approved by the Pfizer Institutional Animal Care and Use Committee. […] Animals were housed at an Association for Assessment and Accreditation of Laboratory Animal Care International accredited facility in species-specific housing. Sample number was adequately powered for exploratory toxicology studies based on consistent internal practice. Clinically acceptable animals were selected for exploratory toxicology studies and assigned to groups using a computer-assisted randomization procedure based on body weights. For the fluorescent microscopic evaluation of the eyes, animals from the control group were initially evaluated in an unblinded fashion to provide the investigator an understanding of the baseline amount of autofluorescence typical for vehicle-treated animals in the study. A subsequent blinded evaluation of all animals in the study including controls was then performed to identify individuals that were outside the normal range established by the initial unblinded control group review.
After fixation for a minimum of 2 days, each eye was sectioned in half along the mid-sagittal plane with one half being embedded cut side down in a paraffin wax block and the other half returned to fixative. Paraffin blocks were sectioned at 4–5 μm using a microtome and the resulting sections were placed on glass slides, stained with H&E and coverslipped.

purified CatD = molecular target: T1, purified CatD (Homo sapiens, UniProt P07339); assay: PF-7802 labelling of purified CatD (probe-based competition); assay type: binding; conditions: 250 nM purified human mature CatD, NaOAc pH 4.5, PF-7802 100 nM
T1 construct: final maturation into a non-covalently associated heavy chain and light chain; purchased Sigma C8696; host or cells: human liver
T1 sequence (P07339 65-162 limits assumed): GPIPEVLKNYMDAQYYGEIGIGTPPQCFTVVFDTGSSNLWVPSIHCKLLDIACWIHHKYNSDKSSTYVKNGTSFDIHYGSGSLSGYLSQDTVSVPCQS
T1 sequence (P07339 169-412 limits assumed): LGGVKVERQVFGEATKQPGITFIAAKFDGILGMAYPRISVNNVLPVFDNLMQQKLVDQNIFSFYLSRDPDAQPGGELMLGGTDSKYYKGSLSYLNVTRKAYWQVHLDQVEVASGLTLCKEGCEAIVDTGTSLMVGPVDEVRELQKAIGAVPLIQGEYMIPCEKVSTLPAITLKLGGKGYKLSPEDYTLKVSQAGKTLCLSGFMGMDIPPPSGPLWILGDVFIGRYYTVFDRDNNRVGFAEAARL
Description: Purified CatD (Sigma C8696, isolated from human liver) or proCatD (R&D systems 1014-AS) was reconstituted and diluted to 250 nM in NaOAc buffer (50 mM, pH 4.5, 0.0001% Tween-20). […] Samples were analysed by in-gel fluorescence scanning and western blot with an α-CatD antibody (R&D Systems AF-1014) as described above for CatD knockdown.

CatE = conditions: purified aspartyl proteases; not previously disclosed
[3] = system: aspartyl proteases (BACE2, cathepsin D, cathepsin E, pepsin and renin); conditions: assays with purified proteins; cited from earlier work
BACE2 = conditions: purified aspartyl proteases; not previously disclosed
[4] = Plasma exposure (average unbound plasma concentration) in dogs; assay type: in vivo; conditions: both sexes, beagle, oral, dog, read-out: Avg Cp,u parent
Description: (§2) Naive […] beagle dogs (Canis lupus familiaris, >8 months old, n=1 male and n=1 female per group) received daily oral dosing of test compounds or vehicle for 14 days at the indicated concentrations. The doses were prepared in a solution of 0.5% methylcellulose and hydroxypropyl methylcellulose acetate succinate (high fine grade) and delivered in a volume of 5 ml kg^−1 per day. Blood samples for bioanalytical analysis were collected in K2EDTA tubes via jugular vessel. Plasma was isolated after centrifugation and stored at –20 °C before analysis. Animals were killed via intravenous administration of barbiturate followed by exsanguination ∼3 h after the final dose on day 15.
as §1
Plasma protein binding was determined in the Rapid Equilibrium Device (RED, Thermo Scientific). […] Samples were protein-precipitated with acetonitrile containing internal standard, and the resulting supernatant was analysed by LC-MS/MS.

[5] = system: mRNA levels (CTSD, CTSB, CTSF, BACE1, GBA, TFEB) in ARPE-19 cells; assay: qRT-PCR of inhibitor-treated ARPE-19 cells; assay type: cell-based, human; conditions: 7 days
[6] = system: retinal pigment epithelium (RPE); assay: Exploratory toxicology, ocular toxicity by retinal histology in dogs; assay type: in vivo; conditions: 14 days; for Female ocular toxicity incidence (positive or negative animals / total evaluated) / Female ocular toxicity outcome / Male ocular toxicity incidence (positive or negative animals / total evaluated) / Male ocular toxicity outcome: dog; for Retinal finding by fluorescence microscopy: dogs
Description: as §2

Cc1cc([C@H]2C[C@H]3[C@@H](CF)SC(N)=N[C@@]3(c3ccc(F)cc3F)CO2)on1 [PF-3195]
Exposure [1]: unexpectedly low exposures | Avg Cp,u metabolite ([1]; rat, 14 days, 15 mg kg-1 once daily): 460 nM | concentration at 29 days ([1]; rat, 14 days, 15 mg kg-1 once daily, average unbound plasma concentration, read-out: Avg Cp,u parent): 5.4 nM | Avg Cp,u metabolite ([1]; rat, 14 days, 40 mg kg-1 once daily): 2570 nM | concentration at 29 days ([1]; rat, 14 days, 40 mg kg-1 once daily, average unbound plasma concentration, read-out: Avg Cp,u parent): 58 nM | Avg Cp,u metabolite ([1]; rat, 14 days, 90 mg kg-1 once daily): 6350 nM | concentration at 29 days ([1]; rat, 14 days, 90 mg kg-1 once daily, average unbound plasma concentration, read-out: Avg Cp,u parent): 232 nM | Avg Cp,u metabolite ([1]; rat, 14 days, 200 mg kg-1 once daily): 17300 nM | concentration at 29 days ([1]; rat, 14 days, 200 mg kg-1 once daily, average unbound plasma concentration, read-out: Avg Cp,u parent): 1790 nM

Cc1cc([C@H]2C[C@H]3[C@@H](C)SC(N)=N[C@@]3(c3ccc(F)cc3F)CO2)on1 [PF-9283]
BACE1(-/-) ocular toxicity incidence (positive or negative animals / total evaluated) ([2]; BACE1(-/-) mice, 14 days): 4/5 | BACE1(-/-) ocular toxicity outcome ([2]; BACE1(-/-) mice, 14 days): Pos | Retinal finding by fluorescence microscopy ([2]; BACE1(-/-) mice, 14 days): accumulated autofluorescent granules were observed | BACE1(-/-) ocular toxicity incidence (positive or negative animals / total evaluated) ([2]; BACE1(-/-) mice, 30 days): 6/6 | BACE1(-/-) ocular toxicity outcome ([2]; BACE1(-/-) mice, 30 days): Pos | WT ocular toxicity incidence (positive or negative animals / total evaluated) ([2]; 2 days): 5/5 | WT ocular toxicity outcome ([2]; 2 days): Neg | WT ocular toxicity incidence (positive or negative animals / total evaluated) ([2]; 4 days): 1/5 | WT ocular toxicity outcome ([2]; 4 days): Pos | WT ocular toxicity incidence (positive or negative animals / total evaluated) ([2]; 7 days): 6/6 | WT ocular toxicity outcome ([2]; 7 days): Pos | WT ocular toxicity incidence (positive or negative animals / total evaluated) ([2]; 14 days): 5/5 | WT ocular toxicity outcome ([2]; 14 days): Pos | WT ocular toxicity incidence (positive or negative animals / total evaluated) ([2]; 30 days): 6/6 | WT ocular toxicity outcome ([2]; 30 days): Pos | Competition of PF-7802 labelling of purified mature CatD (purified CatD): competed by pretreatment with PF-9283 in a concentration-dependent manner; also recorded: concentration-dependently competed | Fold selectivity for BACE1 over CatE (CatE): 320 fold | Selectivity for BACE1 over cathepsins D and E [3]: more than 200 fold | Fold selectivity for BACE1 over BACE2 (BACE2): 1.9 fold | concentration at 14 days ([4]; 3 mg kg-1 once daily): 32 nM | concentration at 14 days ([4]; 9 mg kg-1 once daily): 401 nM | mRNA level changes (qRT-PCR) [5]: did not display changes in mRNA levels; also recorded: no changes in CatD mRNA levels | concentration at 14 days ([1]; Wistar Han, oral, rat, 14 days, 30 mg kg-1 once daily, average unbound plasma concentration, read-out: Avg Cp,u parent): 29 nM | Exposure [1]: unexpectedly low exposures | Female ocular toxicity incidence (positive or negative animals / total evaluated) ([6]; 3 mg kg-1 once daily): 1/1 | Female ocular toxicity outcome ([6]; 3 mg kg-1 once daily): Neg (negative (neg) if there was no ocular abnormality observed) | Male ocular toxicity incidence (positive or negative animals / total evaluated) ([6]; 3 mg kg-1 once daily): 1/1 | Male ocular toxicity outcome ([6]; 3 mg kg-1 once daily): Neg (negative (neg) if there was no ocular abnormality observed) | Female ocular toxicity incidence (positive or negative animals / total evaluated) ([6]; 9 mg kg-1 once daily): 1/1 | Female ocular toxicity outcome ([6]; 9 mg kg-1 once daily): Neg (negative (neg) if there was no ocular abnormality observed) | Male ocular toxicity incidence (positive or negative animals / total evaluated) ([6]; 9 mg kg-1 once daily): 1/1 | Male ocular toxicity outcome ([6]; 9 mg kg-1 once daily): Pos | Retinal finding by fluorescence microscopy ([6]; 3 mg kg-1 daily): not after 3 mg kg-1 dosing | Retinal finding by fluorescence microscopy ([6]; 9 mg kg-1 daily): accumulated autofluorescent
